Results from US7301020B2, “Macrolide analogs and methods for identifying same” (priority 2003, dated 2007).

Assays:
[1] = tested on: NBT-II cells; assay: Effect of macrolides on NBT-II cells (live cell microscopy); type: cell-based, rat
Description: FIG. 7: Effect of KabC on NBT-II cells. NBT-II cells are imaged after 16 hours of drug treatment. KabC concentrations: (A), Control; (B), 10 nM; (C), 100 nM and (D), 1000 nM.
Cell Culture: Rat bladder NBT-II carcinoma cells and mouse NIH 3T3 fibroblast cells are maintained and treated with external drugs as described in Choidas et al (1998).
Live cell microscopy: A multi-model microscope workstation was used to image phase contrast and fluorescence images of living cells (Choidas et al, 1998). Cells are maintained at 37° in a Hepes based culture medium in a Bioptechs cell perfusion chamber (Choidas et al, 1998).

[2] = molecular target: T1, Prodan-G-actin (Oryctolagus cuniculus, UniProt P68135); assay: Kinetic analysis of binding to Prodan-G-actin (stopped-flow and slow phase); parameters: F-actin is purified from rabbit skeletal muscle using a standard protocol; Prodan (Acrylodan) fluorophore, chemical label on the thiol of Cys374; from tissue; host or cells: rabbit skeletal muscle; species or system rabbit
Description: FIG. 3: Kinetic analyses of KabC binding of Prodan labeled G-actin. (A-B). Prodan-actin (0.1 μM) and KabC, loaded into separated syringes, were rapidly mixed within ˜1 msec dead-time. The concentrations of KabC were 0.0 μM (a), 1.0 μM (b), 1.5 μM (c), 2.0 μM (d) and 2.5 μM (data not shown), respectively. The decreases in emission intensity were well fitted with single exponential functions to determine the observed rate, kobs. The observed rates are plotted as a function of the [KabC] in panel (B).
Kinetic analysis of binding reactions. The kinetics of the KabC interaction with Prodan-actin is determined, using an Applied Photophysics SX.18MV Stopped-flow spectrometer, by following the decrease in the emission intensity of Prodan-actin at 25° C. Prodan was excited at 385 nm and emission was collected with a 470 nm (+/−5 nm) band-pass filter. In all cases the decrease in emission intensity was best fit with a single exponential function, which was then used to determine the observed rate, kobs. Kinetic constants of on rate (kon) and off rate (koff) were calculated according to the following equation: kobs=kon[KabC]+koff. The kinetics of the slower binding step observed in the interaction of KabC with Prodan-G-actin interaction is measured by measuring the ratio of fluorescence signals at 465 nm and 530 nm. The decay of this ratio is fit using a single exponential rate.

[3] = molecular target: T1, Prodan-G-actin; assay: Competition-binding assay with GS1 and CapG on Prodan-G-actin; parameters: F-actin is purified from rabbit skeletal muscle using a standard protocol; from tissue; host or cells: actin from rabbit skeletal muscle; CapG and GS1 expressed in E. coli M15; species or system rabbit
Description: FIG. 4: (A) CapG: (a), Prodan-G-actin (100 nM), (b), Prodan-G-actin-CapG; (c), same as (b) in the presence of 0.2 μM KabC; (B); GS1: (a), Prodan-G-actin 100 nM; (b), Prodan-G-actin-GS1; (c), same as (b) in the presence of 0.2 μM KabC.
Characterization of actin binding proteins: The actin-binding properties of the ABPs used in this study are evaluated from changes in the fluorescence emission spectrum of Prodan-actin and actin polymerization assays as described by Marriott et al (1988).
Trisoxazolemacrolides specifically compete with GS1 for the (+)-end binding site on actin. Gelsolin, a monomeric 80 kD cytoskeleton protein composed of six domains interacts with actin filaments in a complex, Ca^2+-dependent manner (Janmey et al, 1985; Burtnick et al, 1997). Gelsolin exerts two major effects once bound to an actin filament: first it severs the filament and second it remains tightly bound to the severed (+)-end and serves to block, or cap, further growth. […] Structural analyses of G-actin complexes with GS1 (McLaughlin et al, 1993) and KabC show these unrelated molecules bind to G-actin through common contact sites that include a patch of hydrophobic residues on the surface between sub-domains 1 and 3 and within the cleft that forms between the interface of sub-domains 1 and 3 (McLaughlin et al, 1993;). GS1 binding to Prodan-G-actin shifts the average energy of the fluorescence emission to the red and is accompanied by a decrease in the quantum yield (FIG. 4A) but not to the extent seen in the KabC-G-actin complex (FIG. 2).
Trisoxazolemacrolides specifically compete with CapG for the (+)-end binding site on actin. CapG, a Ca^2+-dependent, (+)-end actin filament capping protein, is found at high levels in macrophage cells where it regulates membrane ruffling and cell protrusions associated with phagocytosis and motility (Botelho et. al., 2000). […] The Ca^2+-dependent binding of CapG to Prodan-G-actin is accompanied by a dramatic blue-shift in the emission spectrum and an increase in quantum yield (FIG. 4B, curve b). The difference in fluorescence emission spectra between free and CapG-bound Prodan-G-actin is used to quantify the parameters for this binding reaction. The G-actin-CapG complex exists as a 1:1 complex and has a dissociation constant of 100 nM (data not shown). […] This conclusion is consistent with a comparison of high-resolution structures of G-actin with GS1 and KabC and a preliminary analysis of a 2.8 Angstrom structure of a CapG mutant (Vorobiev et al, PDB database, 2002). […] However the emission properties of the CapG-Prodan-G-actin complex are unaffected by the binding of LatA, DNAse and thymosin β4 (Tβ4), which is consistent with some structural data showing that these sequestering molecules bind closer to the ATP pocket and DNAse binding loop (Kabsch et al, 1990).

[4] = molecular target: T2, Prodan-labeled G-actin (Oryctolagus cuniculus, UniProt P68135); assay: Prodan-G-actin titration: binding stoichiometry and dissociation constant; parameters: species or system rabbit; details: Prodan-G-actin titration; read-out: dissociation constant of G-actin complex
T2 construct: F-actin is purified from rabbit skeletal muscle using a standard protocol; Prodan (Acrylodan) fluorophore, chemical label on the thiol of Cys374; from tissue; host or cells: rabbit skeletal muscle
Description: FIG. 2: (A), Stoichiometric binding of Prodan-labeled G-actin (1 μM) in G-buffer with KabC at final concentrations of in μm, a: 0.0; b: 0.1; c: 0.2; d: 0.3; e: 0.4; f: 0.5; g: 0.6; h: 0.7; i: 0.8; j: 0.9; k: 1.0; l: 1.1; m: 1.2; n: 1.5 (B), Plot of the integrated intensity in (A) against [KabC] yields a binding stoichiometry of 1:1.
Prodan-actin: Actin is labeled with the thiol probe, Acrylodan (Molecular Probes, Eugene, Oreg.) using a standard protocol (Marriott et al, 1988). Rabbit muscle G-actin is labeled with the thiol reactive, environmentally sensitive probe, Acrylodan, according to the inventor's earlier publication (Marriott et al, 1988). […]
Determination of the binding stoichiometry and dissociation constants for G-actin complexes with ABPs and macrolide drugs: The change in the quantum yield and/or emission energy of Prodan-actin is used to quantify the interaction of CapG and macrolides with G-actin. The stoichiometry of the CapG-G-actin and macrolide-G-actin complex is determined by titrating Prodan-G-actin at 1 μM with increasing amounts of CapG or the macrolide from 0.1^−10 μM. […] The equilibrium binding constant is determined by titrating a constant amount of Prodan labeled G-actin at 0.05˜0.1 μM in G- or F-buffer with incrementally increasing amounts of the macrolide or CapG over a range of 10 nM to 10 μM. […]

Molecule | cytotoxic activity on NBT II epithelia cells [1] | effect of binding on emission properties of CapG-Prodan-G-actin complex [3] | other results
COC(CC1OC(=O)CC(O)C/C=C/C(=O)C(C)C(OC)c2coc(n2)-c2coc(n2)-c2coc(n2)/C=C/CCC1C)C(C)CCC(=O)C(C)C(C/C=C/N(C)C=O)OC (stereo not drawn) [Hal, halichondramide] | concentration dependent cytotoxic activity | – | binding steps in reaction with G-actin [2]: 1st and 2nd-binding steps are common
C/C1=C/C(=O)O[C@@H]2C[C@@H](CC[C@H](C)/C=C\C=C\CC1)O[C@@](O)([C@@H]1CSC(=O)N1)C2 [LatA] | – | unaffected | –
CO[C@H]1C[C@H](CC[C@H](C)[C@H](O)[C@H](C)[C@H]2OC(=O)/C(C)=C/C[C@H](O)C[C@@H]3C=CC[C@@H](C[C@H](OC)[C@@H](C)[C@@H](O)C[C@@H](O)[C@H](C)[C@@H]([C@@H](C)[C@@H](O)[C@@H](C)CC[C@H]4C[C@H](OC)C[C@H](C)O4)OC(=O)/C(C)=C/C[C@H](O)C[C@@H]4C=CC[C@@H](C[C@H](OC)[C@@H](C)[C@@H](O)C[C@@H](O)[C@@H]2C)O4)O3)O[C@@H](C)C1 [MisA, misakinolide A] | concentration dependent cytotoxic activity | – | binding site on actin by competition-binding assay [3]: bind to the same site on actin as KabC, CapG and GS1
CO[C@H]1C[C@H](CC[C@H](C)[C@H](O)[C@H](C)[C@H]2OC(=O)/C=C/C(C)=C/C[C@H](O)C[C@@H]3C=CC[C@@H](C[C@H](OC)[C@@H](C)[C@@H](O)C[C@@H](O)[C@H](C)[C@@H]([C@@H](C)[C@@H](O)[C@@H](C)CC[C@H]4C[C@H](OC)C[C@H](C)O4)OC(=O)/C=C/C(C)=C/C[C@H](O)C[C@@H]4C=CC[C@@H](C[C@H](OC)[C@@H](C)[C@@H](O)C[C@@H](O)[C@@H]2C)O4)O3)O[C@@H](C)C1 [SwiA, Swinholide A] | concentration dependent cytotoxic activity | – | binding site on actin by competition-binding assay [3]: bind to the same site on actin as KabC, CapG and GS1
DNAse | – | unaffected | –
Ulapualide A [UlaA] | concentration dependent cytotoxic activity | – | binding steps in reaction with G-actin [2]: 1st and 2nd-binding steps are common
thymosin β4: actin monomer sequestering protein | – | unaffected | –
CapG: Ca^2+-dependent, (+)-end actin filament capping protein, cloned from mouse brain cDNA library (protein, UniProt P24452 1-352, looked up) Macrophage-capping protein: MYTPIPQSGSPFPASVQDPGLHIWRVEKLKPVPIARESHGIFFSGDSYLVLHNGPEEASHLHLWIGQQSSRDEQGACAVLAVHLNTLLGERPVQHREVQGNESDLFMSYFPRGLKYYREGGVESAFHKTTSGARGAAIRKLYQVKGKKNIRATERPLSWDSFNTGDCFILDLGQNIFAWCGGKSNILERNKARDLALAIRDSERQGKAQVEIITDGEEPAEMIQVLGPKPALKEGNPEEDITADQTRPNAQAAALYKVSDATGQMNLTKVADSSPFASELLIPDDCFVLDNGLCAQIYIWKGRKANEKERQAALQVADGFISRMRYSPNTQVEILPQGRESPIFKQFFKNWK | – | – | Kd [4]: 100 nM
